In patent publication US20230116972A1, “CD38 MODULATORS AND METHODS OF USE THEREOF” (Cytokinetics, Inc., priority 2021, published 2023):

How the values were obtained:
human CD38 = target: T1, human CD38 (Homo sapiens, UniProt P28907); test: human recombinant CD38 enzyme assay (hydrolysis of NAD+); type: biochemical; settings: human recombinant CD38, 0.4 nM enzyme, 62.5 μM NAD+; read-out: hCD38 BioChem IC50
T1 sequence (P28907 1-300): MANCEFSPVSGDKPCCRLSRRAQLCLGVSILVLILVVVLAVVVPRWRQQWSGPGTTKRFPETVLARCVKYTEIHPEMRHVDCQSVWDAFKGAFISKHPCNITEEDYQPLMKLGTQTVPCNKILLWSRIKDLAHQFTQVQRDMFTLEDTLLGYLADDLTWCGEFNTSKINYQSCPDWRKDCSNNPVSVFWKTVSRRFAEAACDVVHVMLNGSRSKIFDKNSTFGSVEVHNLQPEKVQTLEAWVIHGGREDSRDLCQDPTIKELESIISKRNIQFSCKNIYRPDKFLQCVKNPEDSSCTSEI
Method in brief: (§1)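 Cell-free recombinant enzyme, NAD+ substrate, 60 min at RT. Stop/detect: ethanol/ADH plus semicarbazide and a CD38 inhibitor (15 min), then NaOH, then resazurin/diaphorase (15 min). Remaining NAD+ read as resorufin fluorescence, Ex/Em 540/590 nm. Inhibition fitted from dose responses.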

[1] = target: T2, endogenous CD38 in HL60 cells (Homo sapiens, UniProt P28907); test: cellular CD38 assay in HL60 cells (cellular NAD levels); type: cell-based; settings: all-trans retinoic acid, 24 hours, read-out: hCD38 HL60 ATRA NAD Cell Diaphorase IC50
T2 construct: endogenous in cells; host or cells: HL60 (leukemic cells, treated with all-trans retinoic acid)
T2 sequence (P28907 1-300): T1 sequence (P28907 1-300)
Method in brief: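 HL60 cells (20000/well) were treated with compound in DMSO for 24 h. Cellular NAD was then measured by an enzymatic cycling mix (alcohol dehydrogenase, diaphorase, 40 uM resazurin, 10 uM FMN, 3% ethanol, Triton X-100, pH 8.4).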

mouse CD38 = target: T3, mouse CD38 (Mus musculus, UniProt P56528); test: mouse recombinant CD38 enzyme assay (hydrolysis of NAD+); type: biochemical; settings: read-out: mCD38 BioChem IC50
T3 sequence (P56528 1-304): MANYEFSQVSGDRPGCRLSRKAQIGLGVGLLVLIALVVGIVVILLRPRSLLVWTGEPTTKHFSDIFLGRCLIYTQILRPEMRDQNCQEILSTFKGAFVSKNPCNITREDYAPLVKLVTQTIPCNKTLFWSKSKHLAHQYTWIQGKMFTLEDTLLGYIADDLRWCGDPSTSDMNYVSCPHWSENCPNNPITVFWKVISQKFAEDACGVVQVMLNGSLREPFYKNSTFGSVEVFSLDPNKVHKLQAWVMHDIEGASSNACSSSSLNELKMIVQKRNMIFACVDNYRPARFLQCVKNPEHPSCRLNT
Method in brief: as §1

Row | SMILES | IC50 (human CD38) | IC50 [1] | IC50 (mouse CD38)
1 | Cn1cncc1-c1cncc(C(=O)N[C@H]2CC[C@H](C(F)F)CC2)n1 [Compound 92, N-((1r,4r)-4-(difluoromethyl)cyclohexyl)-6-(1-methyl-1H-imidazol-5-yl)pyrazine-2-carboxamide] | 22 nM | 1180 nM | 13 nM
2 | O=C(Nc1ccc(C(F)F)nc1)c1cc(C2CC2)nc(-c2cncs2)n1 [Compound 110, 6-cyclopropyl-N-(6-(difluoromethyl)pyridin-3-yl)-2-(thiazol-5-yl)pyrimidine-4-carboxamide] | 108 nM | 2550 nM | 20 nM
3 | O=C(Nc1ccc(C(F)F)nc1)c1nc(O)cc(-n2ccnc2)n1 [Compound 216, N-(6-(difluoromethyl)pyridin-3-yl)-4-hydroxy-6-(1H-imidazol-1-yl)pyrimidine-2-carboxamide] | 66.6 nM | 9420 nM | 49.3 nM
4 | CC(C)c1cc(C(=O)Nc2ccc(C(F)(F)F)nc2)nc(-n2ccnc2)n1 [Compound 170, 2-(1H-imidazol-1-yl)-6-isopropyl-N-(6-(trifluoromethyl)pyridin-3-yl)pyrimidine-4-carboxamide] | 47 nM | 4860 nM | 32 nM
5 | O=C(N[C@H]1CC[C@H](C(F)F)CC1)c1cc(C2CC2)nc(-n2ccnc2)n1 [Compound 161, 6-cyclopropyl-N-((1r,4r)-4-(difluoromethyl)cyclohexyl)-2-(1H-imidazol-1-yl)pyrimidine-4-carboxamide] | 26 nM | 2450 nM | 4 nM
6 | Cn1cncc1-c1ccnc(C(=O)N[C@H]2C[C@@H](c3ccc(C(F)(F)F)nc3)C2)n1 [Compound 274, 4-(1-methyl-1H-imidazol-5-yl)-N-((1s,3s)-3-(6-(trifluoromethyl)pyridin-3-yl)cyclobutyl)pyrimidine-2-carboxamide] | 404 nM | 10800 nM | 185 nM
7 | Cn1cncc1-c1nc(C(=O)N[C@H]2C[C@H](c3ccccc3)C2)cc(C2CCOCC2)n1 [Compound 230, 2-(1-methyl-1H-imidazol-5-yl)-N-((1r,3r)-3-phenylcyclobutyl)-6-(tetrahydro-2H-pyran-4-yl)pyrimidine-4-carboxamide] | 4.3 nM | 1460 nM | 1.7 nM
8 | Cc1cc(C(=O)N[C@H]2CC[C@H](C(F)F)CC2)nc(-c2cncn2C)c1 [Compound 99, N-(4-(difluoromethyl)cyclohexyl)-4-methyl-6-(1-methyl-1H-imidazol-5-yl)picolinamide] | 80 nM | 5130 nM | 7 nM
9 | COc1cc(-c2cncn2C)nc(C(=O)Nc2ccc(C(F)F)nc2)n1 [Compound 201, N-(6-(difluoromethyl)pyridin-3-yl)-4-methoxy-6-(1-methyl-1H-imidazol-5-yl)pyrimidine-2-carboxamide] | 2.6 nM | 317 nM | 1.3 nM
10 | O=C(N[C@H]1CC[C@H](C(F)(F)F)CC1)c1ccnc(-n2ccnc2)n1 [Compound 79, 2-(1H-imidazol-1-yl)-N-((1r,4r)-4-(trifluoromethyl)cyclohexyl)pyrimidine-4-carboxamide] | 21 nM | 2330 nM | 12 nM
11 | O=C(N[C@H]1C[C@H](c2cccc(F)c2)C1)c1nccc(-n2ccnc2)n1 [Compound 237, N-((1r,3r)-3-(3-fluorophenyl)cyclobutyl)-4-(1H-imidazol-1-yl)pyrimidine-2-carboxamide] | 33.8 nM | 2200 nM | 29.5 nM
12 | O=C(N[C@H]1C[C@H](c2ccccc2)C1)c1nccc(-n2ccnc2)n1 [Compound 211, 4-(1H-imidazol-1-yl)-N-((1r,3r)-3-phenylcyclobutyl)pyrimidine-2-carboxamide] | 46.2 nM | 2010 nM | 29.8 nM
13 | O=C(Nc1cccnc1)c1ccnc(-n2ccnc2)c1 [Compound 10, 2-(1H-imidazol-1-yl)-N-(pyridin-3-yl)isonicotinamide] | 1190 nM | 4350 nM | 433 nM
14 | O=C(Nc1ccccc1)c1cc(-n2ccnc2)ccn1 [Compound 5, 4-(1H-imidazol-1-yl)-N-phenylpicolinamide] | 313 nM | 7820 nM | 420 nM
15 | Cn1cncc1-c1ccnc(C(=O)N[C@H]2CC[C@](O)(c3ccccc3)CC2)n1 [Compound 252, N-((1s,4s)-4-hydroxy-4-phenylcyclohexyl)-4-(1-methyl-1H-imidazol-5-yl)pyrimidine-2-carboxamide] | 255 nM | 4880 nM | 184 nM
16 | CC(C)(O)[C@H]1CC[C@H](NC(=O)c2cccc(-n3ccnc3)n2)CC1 [Compound 134, N-((1r,4r)-4-(2-Hydroxypropan-2-yl)cyclohexyl)-6-(1H-imidazol-1-yl)picolinamide] | 37 nM | 3020 nM | 5 nM
17 | COCCO[C@H]1CC[C@H](NC(=O)c2nc(-n3ccnc3)ccc2F)CC1 [Compound 43, 3-fluoro-6-(1H-imidazol-1-yl)-N-(4-(2-methoxyethoxy)cyclohexyl)picolinamide] | 200 nM | 7490 nM | 32 nM
18 | O=C(Nc1ccc(C(F)(F)F)nc1)c1ccc(F)c(-n2ccnc2)n1 [Compound 53, 5-fluoro-6-(1H-imidazol-1-yl)-N-(6-(trifluoromethyl)pyridin-3-yl)picolinamide] | 10 nM | 675 nM | 10 nM
19 | O=C(Nc1cccnc1)c1cccc(-n2ccnc2)c1 [Compound 9, 3-(1H-imidazol-1-yl)-N-(pyridin-3-yl)benzamide] | 1240 nM | 5980 nM | 432 nM
20 | COc1cc(C(=O)N[C@H]2CC[C@H](OC)CC2)nc(-n2ccnc2)n1 [Compound 125, 2-(1H-imidazol-1-yl)-6-methoxy-N-((1r,4r)-4-methoxycyclohexyl)pyrimidine-4-carboxamide] | 19 nM | 2480 nM | 4 nM
21 | CCO[C@H]1C[C@H](NC(=O)c2nccc(-c3cncn3C)n2)C1 [Compound 299, N-((1r,3r)-3-ethoxycyclobutyl)-4-(1-methyl-1H-imidazol-5-yl)pyrimidine-2-carboxamide] | 288 nM | 4100 nM | 74.8 nM
22 | O=C(Nc1ccc(C(F)F)nc1)c1cc(C2CCOCC2)nc(-n2ccnc2)n1 [Compound 195, N-(6-(difluoromethyl)pyridin-3-yl)-2-(1H-imidazol-1-yl)-6-(tetrahydro-2H-pyran-4-yl)pyrimidine-4-carboxamide] | 14.6 nM | 1580 nM | 9.9 nM
23 | Cc1cc(-c2cncn2C)nc(C(=O)Nc2ccc(C(F)(F)F)nc2)n1 [Compound 235, 4-methyl-6-(1-methyl-1H-imidazol-5-yl)-N-(6-(trifluoromethyl)pyridin-3-yl)pyrimidine-2-carboxamide] | 3.8 nM | 376 nM | 1.6 nM
24 | Cc1ccc(C(=O)Nc2cccnc2)nc1-n1ccnc1 [Compound 22, 6-(1H-imidazol-1-yl)-5-methyl-N-(pyridin-3-yl)picolinamide] | 496 nM | 802 nM | 70 nM
25 | O=C(N[C@H]1CC[C@H](C(F)F)CC1)c1cccc(-n2ccnc2)n1 [Compound 64, N-(4-(difluoromethyl)cyclohexyl)-6-(1H-imidazol-1-yl)picolinamide] | 34 nM | 2420 nM | 7 nM
26 | O=C(Nc1cccc(F)c1)c1cccc(-n2ccnc2)n1 [Compound 18, N-(3-fluorophenyl)-6-(1H-imidazol-1-yl)picolinamide] | 6 nM | 415 nM | 6 nM
27 | O=C(N[C@H]1CC[C@H](C(F)F)CC1)c1nccc(-n2ccnc2)n1 [Compound 73, N-((1r,4r)-4-(difluoromethyl)cyclohexyl)-4-(1H-imidazol-1-yl)pyrimidine-2-carboxamide] | 60 nM | 1990 nM | 33 nM
28 | Cc1cc(C(F)(F)F)ncc1NC(=O)c1cccc(-n2ccnc2)n1 [Compound 29, 6-(1H-imidazol-1-yl)-N-(4-methyl-6-(trifluoromethyl)pyridin-3-yl)picolinamide] | 389 nM | 8550 nM | 110 nM
29 | Cc1cc(C(=O)Nc2ccc(C(F)F)nc2)nc(-c2cncs2)c1 [Compound 132, N-(6-(difluoromethyl)pyridin-3-yl)-4-methyl-6-(thiazol-5-yl)picolinamide] | 115 nM | 5560 nM | 55 nM
